# Source: ChEMBL document CHEMBL1649337, “Triterpenoidal alkaloids from Buxus natalensis and their acetylcholinesterase inhibitory activity” (J Nat Prod, 2010)
# Biological target: Acetylcholinesterase (Homo sapiens, UniProt P22303)
# Test: Inhibition of AChE by Ellman's method; call rule not given here
# Acetylcholinesterase, sequence (P22303 whole entry): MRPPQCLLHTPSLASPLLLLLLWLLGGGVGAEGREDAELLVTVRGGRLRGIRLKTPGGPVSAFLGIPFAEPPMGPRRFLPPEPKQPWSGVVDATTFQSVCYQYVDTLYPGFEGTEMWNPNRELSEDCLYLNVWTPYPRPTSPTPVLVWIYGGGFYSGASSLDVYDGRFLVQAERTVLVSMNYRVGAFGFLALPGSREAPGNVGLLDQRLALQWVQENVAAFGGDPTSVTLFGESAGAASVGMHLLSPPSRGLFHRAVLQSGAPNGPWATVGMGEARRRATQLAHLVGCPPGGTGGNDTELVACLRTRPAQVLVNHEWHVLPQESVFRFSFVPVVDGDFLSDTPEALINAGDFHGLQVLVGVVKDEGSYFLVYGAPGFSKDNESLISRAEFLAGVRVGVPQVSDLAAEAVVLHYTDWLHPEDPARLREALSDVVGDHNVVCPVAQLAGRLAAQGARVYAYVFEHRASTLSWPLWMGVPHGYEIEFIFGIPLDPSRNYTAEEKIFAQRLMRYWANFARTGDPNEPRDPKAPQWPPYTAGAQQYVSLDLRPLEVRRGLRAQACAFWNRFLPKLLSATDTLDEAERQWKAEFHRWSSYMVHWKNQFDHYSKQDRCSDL
Structure (SMILES),IC50 (read-out: IC50),IC50
CC(=O)O[C@H]1C[C@@H]2C(=CC[C@]3(C)[C@@H]([C@H](C)N(C)C)[C@H](O)C[C@@]23C)C[C@@]23O[C@@H]2[C@H]2OC[C@](C)([C@H]2NC(=O)c2ccccc2)[C@H]13,3 µM,–
C[C@@H]([C@H]1[C@H](O)C[C@@]2(C)[C@@H]3C[C@H](O)[C@H]4[C@]5(C)CO[C@]4(C=C[C@@H]5NC(=O)c4ccccc4)CC3=CC[C@]12C)N(C)C,8.5 µM,–
C[C@@H]1[C@@H]2CC[C@@H]3C(=CC[C@]4(C)[C@@H]([C@H](C)N(C)C)[C@H](O)C[C@@]34C)C=C2CC[C@@H]1N(C)C [31-DEMETHYLBUXAMINOL],25.8 µM,–
CC(=O)O[C@@H]1C[C@@]2(C)[C@@H]3C[C@H]4OC[C@@]5(C)[C@@H](NC(=O)c6ccccc6)C=C[C@@](O)(CC3=CC[C@]2(C)[C@H]1[C@H](C)N(C)C)[C@@H]45 [BUXAFURANAMIDE],14 µM,–
CC(=O)O[C@@H]1C[C@@]2(C)[C@@H]3CC[C@H]4[C@](C)(CO)[C@@H](NC(=O)c5ccccc5)C=C[C@]4(O)CC3=CC[C@]2(C)[C@H]1[C@H](C)N(C)C [BUXALONGIFOLAMIDINE],30.2 µM,–
C[C@@H]([C@H]1CC[C@@]2(C)[C@@H]3CC[C@@H]4C(=CC3=CC[C@]12C)CC[C@H](N(C)C)C4(C)C)N(C)C [BUXAMINE A],80 µM,–
C[C@@H]([C@H]1[C@H](O)C[C@@]2(C)[C@@H]3CC[C@@H]4C(=CC3=CC[C@]12C)CC[C@H](N(C)C)C4(C)C)N(C)C [BUXAMINOL A],29.8 µM,–
CN[C@H]1CCC2=CC3=CC[C@]4(C)[C@@H]([C@H](C)N(C)C)[C@H](O)C[C@@]4(C)[C@@H]3CC[C@H]2C1(C)C [BUXAMINOL C],40 µM,–
C/C=C1/C(=O)C[C@@]2(C)[C@@H]3CC[C@H]4C(C)(C)[C@@H](N(C)C)CC[C@@]45C[C@@]35CC[C@]12C [CYCLOBUXOPHYLLINE K],58.2 µM,–
C[C@@H]([C@H]1[C@H](O)C[C@@]2(C)[C@@H]3C=C[C@H]4C(C)(C)[C@@H](N(C)C)[C@H](O)C[C@@]45C[C@@]35CC[C@]12C)N(C)C [CYCLONATAMINOL],22.9 µM,–
NCCCCNC(=O)/C=C/c1ccc(O)cc1 [P-COUMAROYLPUTRESCINE],–,Not Active
